Reference: PubChem BioAssay AID208 (DTP/NCI, 2004)
“And” between values parts separate entries of the source, which are not always exact repeats. Equal entries are not always repeated. Results filed as inconclusive are left out.

System: HT29 intrarenal xenograft, nude mice, tumor weight change
Test: NCI In Vivo Anticancer Drug Screen. Data for tumor model HT29;CX-1 Human Adenocarcinoma (MER+) (intrarenal inoculation) in NU/NU BALB/C (nude) mice
Settings: endpoint: mean tumor weight change, higher = larger tumour
Experimental: The antitumor activity of compounds was measured in mice bearing transplantable tumors. Survival or tumor size were measured and the results are expressed as the measurement made in the treated group (T) divided by the measurement made in the vehicle treated control group (C). The tumor model used in this assay is HT29;CX-1 Human Adenocarcinoma (MER+) (intrarenal inoculation) in NU/NU BALB/C (nude) mice

[1] = dose: 150.0 mg/kg/injection, schedule: Q04DX004 (sc), vehicle: saline with Tween-80
[2] = dose: 300.0 mg/kg/injection, schedule: Q04DX004 (sc), vehicle: saline with Tween-80
[3] = dose: 600.0 mg/kg/injection, schedule: Q04DX004 (sc), vehicle: saline with Tween-80
[4] = dose: 1200.0 mg/kg/injection, schedule: Q04DX004 (sc), vehicle: saline with Tween-80

With `COc1cc([C@@H]2c3cc4c(cc3[C@@H](OC3OC5CO[C@@H](c6cccs6)OC5C(O)C3O)[C@H]3COC(=O)[C@H]23)OCO4)cc(OC)c1O` (stereo not given in full) as the compound, how does the T/C (dose: 8.0 mg/kg/injection, schedule: Q01DX010 (sc), vehicle: saline) read?
The T/C was 225 % of control.

What about the T/C (dose: 16.0 mg/kg/injection, schedule: Q01DX010 (sc), vehicle: saline) of the same compound?
The T/C was 221 % of control.

And the T/C (dose: 32.0 mg/kg/injection, schedule: Q01DX010 (sc), vehicle: saline)?
The T/C was 189 % of control.

And the T/C (dose: 33.0 mg/kg/injection, schedule: Q01DX010 (sc), vehicle: saline)?
The T/C was 191 % of control.

And the T/C (dose: 66.0 mg/kg/injection, schedule: Q01DX010 (sc), vehicle: saline)?
The T/C was 60 % of control.

And the T/C (dose: 132.0 mg/kg/injection, schedule: Q01DX010 (sc), vehicle: saline)?
Its T/C is 151 % of control.

And the T/C (dose: 264.0 mg/kg/injection, schedule: Q01DX010 (sc), vehicle: saline)?
Its T/C is 38 % of control.

How did the T/C (dose: 225.0 mg/kg/injection, schedule: Q04DX004 (sc), vehicle: suspension in saline) turn out when `O=c1[nH]c2c(ccc3cnccc32)c2c1CCC2` was run?
The T/C was 67 % of control.

And the T/C (dose: 450.0 mg/kg/injection, schedule: Q04DX004 (sc), vehicle: suspension in saline)?
The T/C was 67 % of control.

What about the T/C (dose: 900.0 mg/kg/injection, schedule: Q04DX004 (sc), vehicle: suspension in saline) of the same compound?
Its T/C is 73 % of control.

What about the T/C (dose: 1800.0 mg/kg/injection, schedule: Q04DX004 (sc), vehicle: suspension in saline) of the same compound?
The T/C was 53 % of control.

`N[C@@H](Cc1ccc(N(CCCl)CCCl)cc1)C(=O)O` was tested. Which T/C (dose: 1.0 mg/kg/injection, schedule: Q01DX010 (sc), vehicle: saline) did it give?
The T/C was 28 % of control.

And the T/C (dose: 2.0 mg/kg/injection, schedule: Q01DX010 (sc), vehicle: saline)?
Its T/C is 3 % of control.

Which T/C (dose: 200.0 mg/kg/injection, schedule: Q04DX004 (sc), vehicle: saline with Tween-80) does the source give for `NC(=S)N/N=C/c1ccc(O)cn1` here?
The T/C was 75 % of control.

`CN(CO)c1nc(N(C)CO)nc(N(C)CO)n1` was tested. Which T/C (dose: 6.25 mg/kg/injection, schedule: Q01DX010 (sc), vehicle: saline) did it give?
Its T/C is 100 % of control.

What about the T/C (dose: 25.0 mg/kg/injection, schedule: Q01DX010 (sc), vehicle: saline) of the same compound?
The T/C was 92 % of control.

And the T/C (dose: 100.0 mg/kg/injection, schedule: Q01DX010 (sc), vehicle: saline)?
Its T/C is 6 % of control.

Which T/C (dose: 1.88 mg/kg/injection, schedule: Q01DX010 (sc), vehicle: saline with Tween-80) does the source give for `Nc1nc(=S)c2ncn(C3CC(O)C(CO)O3)c2[nH]1` (stereo not given) here?
The T/C was 164 % of control.

For `O=C(O)CP(=O)(O)O`, which T/C (dose: 600.0 mg/kg/injection, schedule: Q04DX004 (sc), vehicle: saline) is on record?
The T/C was 51 % of control.

What about the T/C (dose: 1200.0 mg/kg/injection, schedule: Q04DX004 (sc), vehicle: saline) of the same compound?
Its T/C is 118 % of control.

What about the T/C (dose: 2400.0 mg/kg/injection, schedule: Q04DX004 (sc), vehicle: saline) of the same compound?
Its T/C is 34 % of control.

Which results are given for `COC1(OC)C2C=CC1CC2`?
T/C [1]: 114 % of control; T/C [2]: 72 % of control; T/C [3]: 123 % of control; T/C [4]: 197 % of control

`CNC1C(O)C(OC2C(N)CC(N)C(OC3OC(C(C)O)C(O)C(O)C3N)C2O)OCC1(C)O` (stereo not given) was tested. Which T/C (dose: 50.0 mg/kg/injection, schedule: Q04DX004 (ip), vehicle: saline) did it give?
Its T/C is 102 % of control.

Which results are given for `CCC1OCC(C(Cl)CCl)O1` (stereo not given)?
T/C (dose: 177.0 mg/kg/injection, schedule: Q01DX014 (sc), vehicle: other): 57 % of control and 75 % of control; T/C (dose: 267.0 mg/kg/injection, schedule: Q01DX014 (sc), vehicle: other): 85 % of control; T/C (dose: 600.0 mg/kg/injection, schedule: Q01DX014 (sc), vehicle: other): 61 % of control; T/C (dose: 900.0 mg/kg/injection, schedule: Q01DX014 (sc), vehicle: Klucel (hydroxypropylcellulose) (HPC)): 10 % of control

Which T/C (dose: 75.0 mg/kg/injection, schedule: Q04DX004 (sc), vehicle: distilled water + Tween-80 + alcohol) does the source give for `Cc1cc(NCCCCCCCCNc2cc(C)nc3cc(N(C)C)ccc23)c2ccc(N(C)C)cc2n1` here?
The T/C was 84 % of control.

What about the T/C (dose: 150.0 mg/kg/injection, schedule: Q04DX004 (sc), vehicle: distilled water + Tween-80 + alcohol) of the same compound?
Its T/C is 62 % of control.

What about the T/C (dose: 300.0 mg/kg/injection, schedule: Q04DX004 (sc), vehicle: distilled water + Tween-80 + alcohol) of the same compound?
Its T/C is 85 % of control.

What about the T/C (dose: 600.0 mg/kg/injection, schedule: Q04DX004 (sc), vehicle: distilled water + Tween-80 + alcohol) of the same compound?
The T/C was 35 % of control.

For `O.O.[NH-]C1CCCCC1[NH-].[Pt+2]` (stereo not given), which T/C (dose: 5.0 mg/kg/injection, schedule: Q01DX010 (sc), vehicle: dextrose) is on record?
The T/C was 98 % of control.

What about the T/C (dose: 10.0 mg/kg/injection, schedule: Q01DX010 (sc), vehicle: dextrose) of the same compound?
Its T/C is 75 % of control.

What about the T/C (dose: 20.0 mg/kg/injection, schedule: Q01DX010 (sc), vehicle: dextrose) of the same compound?
Its T/C is 34 % of control.

What about the T/C (dose: 40.0 mg/kg/injection, schedule: Q01DX010 (sc), vehicle: dextrose) of the same compound?
The T/C was 19 % of control.

Which T/C (dose: 300.0 mg/kg/injection, schedule: Q04DX004 (sc), vehicle: water) does the source give for `BrCCC1(CCBr)CCCCC1` here?
The T/C was 97 % of control.

And the T/C (dose: 600.0 mg/kg/injection, schedule: Q04DX004 (sc), vehicle: water)?
Its T/C is 77 % of control.

And the T/C (dose: 1200.0 mg/kg/injection, schedule: Q04DX004 (sc), vehicle: water)?
Its T/C is 58 % of control.

And the T/C (dose: 2400.0 mg/kg/injection, schedule: Q04DX004 (sc), vehicle: water)?
The T/C was 76 % of control.

Which T/C (dose: 1.5 mg/kg/injection, schedule: Q04DX004 (sc), vehicle: saline) does the source give for `CCCNC1=C(C)C(=O)C2=C(C1=O)[C@H](COC(N)=O)[C@]1(OC)[C@@H]3N[C@@H]3CN21` here?
The T/C was 26 % of control.

And the T/C (dose: 3.0 mg/kg/injection, schedule: Q04DX004 (sc), vehicle: saline)?
Its T/C is 91 % of control.

And the T/C (dose: 6.0 mg/kg/injection, schedule: Q04DX004 (sc), vehicle: saline)?
Its T/C is 87 % of control and 91 % of control.

What about the T/C (dose: 12.0 mg/kg/injection, schedule: Q04DX004 (sc), vehicle: saline) of the same compound?
The T/C was 5 % of control and 26 % of control.

What does the source list for `CC(=O)OCC(=O)[C@@]12OC(C)(C)O[C@@H]1C[C@H]1[C@@H]3CC(C=O)=C4C=C(OCCCl)CC[C@]4(C)[C@@]3(F)[C@@H](O)C[C@@]12C`?
T/C (dose: 50.0 mg/kg/injection, schedule: Q04DX004 (sc), vehicle: Klucel (hydroxypropylcellulose) (HPC)): 101 % of control; T/C (dose: 100.0 mg/kg/injection, schedule: Q04DX004 (sc), vehicle: Klucel (hydroxypropylcellulose) (HPC)): 23 % of control

How did the T/C (dose: 20.0 mg/kg/injection, schedule: Q04DX004 (sc), vehicle: Klucel (hydroxypropylcellulose) (HPC)) turn out when `COC1C(C)OC(OC2CC(C)(O)Cc3cc4c(c(O)c32)C(=O)c2c(O)cc3c(c2C4=O)OC2OC3(C)C(O)C(N(C)C)C2O)C(OC)C1(C)OC` (stereo not given) was run?
The T/C was 74 % of control.

And the T/C (dose: 40.0 mg/kg/injection, schedule: Q04DX004 (sc), vehicle: Klucel (hydroxypropylcellulose) (HPC))?
Its T/C is 49 % of control.

How did the T/C (dose: 10.0 mg/kg/injection, schedule: Q04DX004 (sc), vehicle: saline) turn out when `CC(C)CC(NC(=O)CF)C(=O)O` (stereo not given) was run?
Its T/C is 87 % of control.

And the T/C (dose: 20.0 mg/kg/injection, schedule: Q04DX004 (sc), vehicle: saline)?
Its T/C is 157 % of control.

For `O=CC(NC(=O)N(CCCl)N=O)C(O)C(O)C(O)CO` (stereo not given), which T/C (dose: 1.5 mg/kg/injection, schedule: Q01DX010 (sc), vehicle: Klucel (hydroxypropylcellulose) (HPC)) is on record?
Its T/C is 45 % of control.

What about the T/C (dose: 3.0 mg/kg/injection, schedule: Q01DX010 (sc), vehicle: Klucel (hydroxypropylcellulose) (HPC)) of the same compound?
Its T/C is 42 % of control.

What about the T/C (dose: 6.0 mg/kg/injection, schedule: Q01DX010 (sc), vehicle: Klucel (hydroxypropylcellulose) (HPC)) of the same compound?
The T/C was 35 % of control.

Which results are given for `O=[N+]([O-])c1ccc(N2CCOCC2)c2c1no[n+]2[O-]`?
T/C (dose: 75.0 mg/kg/injection, schedule: Q04DX004 (sc), vehicle: saline with Tween-80): 88 % of control; T/C [1]: 116 % of control; T/C [2]: 156 % of control; T/C [3]: 83 % of control

With `NC(=O)CCC(N)C(=O)O` (stereo not given) as the compound, how does the T/C (dose: 75.0 mg/kg/injection, schedule: Q04DX004 (ip), vehicle: suspension in saline) read?
Its T/C is 101 % of control.

And the T/C (dose: 150.0 mg/kg/injection, schedule: Q04DX004 (ip), vehicle: suspension in saline)?
Its T/C is 70 % of control.

And the T/C (dose: 600.0 mg/kg/injection, schedule: Q04DX004 (ip), vehicle: suspension in saline)?
Its T/C is 95 % of control.

What about the T/C (dose: 1200.0 mg/kg/injection, schedule: Q04DX004 (ip), vehicle: suspension in saline) of the same compound?
Its T/C is 107 % of control.

Which T/C (dose: 75.0 mg/kg/injection, schedule: Q04DX004 (sc), vehicle: saline) does the source give for `O=P1(NCCCl)OCCCN1CCCl` (stereo not given) here?
Its T/C is 68 % of control.

`NCCCNCCSP(=O)(O)O` was tested. Which T/C (dose: 200.0 mg/kg/injection, schedule: Q04DX004 (sc), vehicle: saline) did it give?
The T/C was 102 % of control.

`O=C1N[C@@H]2C(=C[C@H](O)[C@@H](O)[C@H]2O)c2cc3c(c(O)c21)OCO3` was tested. Which T/C (dose: 5.0 mg/kg/injection, schedule: Q04DX004 (sc), vehicle: saline with Tween-80) did it give?
The T/C was 177 % of control.

Which results are given for `N=c1c(C(=O)OCc2ccccc2)ncc(CCl)n1O`?
T/C [1]: 67 % of control; T/C [2]: 58 % of control; T/C [3]: 49 % of control; T/C [4]: 75 % of control
